Earlier results, collected in patent US20140256822A1, “TRANSMUCOSAL DRUG DELIVERY SYSTEM” (priority 2013, published 2014).

Settings: at a pH of 6.8

## CN1CCCC1c1cccnc1 (stereo not shown) [nicotine]
  nicotine in the free base form: about 10%
